From US4687773A, “(+)-N-N-propylnorapomorphine and selective limbic activity” (priority 1985, dated 1987) come the findings set out here.

The subject of assay [1] is dopamine (DA) receptors in the limbic system. In words: Locomotor activity (spontaneous or aroused by (-)APO / (-)NPA), electronic activity monitor. The class given is in vivo, rat. The conditions noted are these: for interaction with (-)APO locomotor arousal (in words) / EAM Score / EAM Score, Percent of Control: Table 11; for interaction with (-)APO locomotor arousal (in words): 3 mg/kg ip with (-)APO; for EAM Score: 60 min; for effect on locomotor-arousal activity (in words): with or without (-) isomer; for increase of the locomotor stimulatory effect of APO: with (-)APO; for Locomotion: Table 4. As to the method: (§1) Activity: Overall motor activity was measured by use of the self-recording Stoelting electronic activity monitor method described previously by Stewart, Campbell, Sperk, and Baldessarini^9. Total activity is obtained by setting monitor sensitivity so as to detect both locomotion and small movements (such as grooming, sniffing, and chewing) as would be prominent in stereotyped responses that tend to diminish locomotion and increase sniffing, licking, and chewing movements. Locomotor activity is detected selectively by setting monitor sensitivity to detect large, locomotor movements, and to minimize smaller movements already described.
Rats (mean N=6 per condition) were tested for locomotor activity for 60 min following a single dose of (-)APO (0.3 mg/kg, SC), or its vehicle ("placebo" condition). The S(+) isomers were administered in a range of doses from 0 or 0.1 to 30 mg/kg, SC immediately following injection of (-)APO or its vehicle. Data are presented in FIG. 2 as mean EAM activity counts per hour SEM. In that figure, the dashed line labeled "control" represents the mean activity of rats given vehicle only and no aporphine (SD values are indicated by parallel light lines above and below the control mean).
Test agents (11substituted-N--propylnoraporphine isomers were given at a
dose of 3 mg/kg, ip (in 2 ml/kg) just prior to (-)apomorphine (APO, at 0.
mg/kg, ip, in 1 ml/kg) to rats (N = 6) tested in an electronic activity

Assay [2] concerns dopamine (DA) receptors in the basal ganglia (corpus striatum). In words: Stereotyped licking and gnawing behavior rating in the rat. Particulars: for SB Score, Percent of Maximum / SB Score (stereotyped behaviors): Table 12, 3 mg/kg ip; for SB Score (stereotyped behaviors): max. possible score 18.0; for stereotyped behavior (in words): rat, in vivo. The class given is in vivo. The text has this: Stereotypy: The mean stereotyped licking and gnawing behavioral rating scheme developed by Tarsy and Baldessarini^8 was used. […]
Stereotypy scores were rated for one hour as described in […]

In assay [3] the test system is DA in the corpus striatum (basal ganglia). In words: Head posture (contralateral head deviation) after intrastriatal DA. It counts as in vivo, rat.
Procedure: Rats given 16 μg DA into striatum after an MAO inhibitor; head posture
after an aporphine. Data are means ± SEM (N = 6).
The subject of assay [4] is DA in the limbic system (nucleus accumbens septi). In words: Arousal (locomotor activity) induced by DA injected into nucleus accumbens septi. Particulars: for activity counts (arousal induced by 16 μg DA in accumbens): 30 min, DA control 238 ± 38; for ED50: Rattus norvegicus; for ED50 / ID50: DA 16 μg in accumbens; for ID50: hydrochloride. The class given is in vivo, rat. Here is the method: An experiment shown in Table 9 involves testing the effects of S(+) isomers of apomorphine (APO) and N-propylnorapomorphine (NPA) given systemically (intraperitoneally, ip), as well as S(+) methylenedioxy-N-propylnorapomorphine (MDO-NPA) given ip or orally (po, by orogastric intubation). […]. […] Activity was monitored for 30 min after injection of DA into the brain, which was done at 10 min after systemic dosing with an S(+)aporphine test compound.
Data are mean activity counts ± SEM (N = 6) for rats given DA into the
medial accumbens after pretreatment with an inhibitor of monoamine oxidas
(MA0), and monitored on EAM for 30 min (aporphine given 10 min before DA
systemicallyintraperitoneally [ip] or orally [po].

Assay [5] relates to dopamine (DA) receptors in the limbic system. In words: Effect of metabolic inhibitor SKF-525A on locomotor effect of (+)MDO-NPA. The class given is in vivo, rat. As to the method:
Rats (N = 6) per condition) were tested by monitoring locomotor activity
on an electronic monitor under higharousal conditions (7-8 PM during earl
"lights out" phase, and singly in previously occupied test cages).
Pretreatment was saline (control) or the microsomal inhibitor SKF525A (40
mg/kg, ip). At 30 min later, saline or (+)MDONPA (3 mg/kg, ip) was given,
and the rats were monitored for the next 60 min. Data are activity counts
per hour, as means ± SEM ([*] = significant by ttest at p < 0.05). Th

Assay [6] has as its system dopamine (DA) receptors in the limbic system and basal ganglia. In words: Total motor activity, electronic activity monitor (EAM). It counts as in vivo, rat. Particulars: Table 4. As to the method: as §1
All data presented in the Tables below are expressed as the mean results from 4-6 rats per condition, ±S.E.M. Stereotypy is expressed in rating units (maximum=3.0) and activity is expressed in arbitrary units of percent change, derived from EAM counts per unit time, relative to activity in control (saline) animals set at zero.
All the posttreatment doses of (+)APO were 3.0 mg/kg, s.c. The data
All posttreatment doses of (+)NPA were 3 mg/kg, s.c. The data are similar

For assay [7], the system named is dopamine (DA) receptors in the limbic system. In words: Locomotor activity (spontaneous or aroused by (-)APO / (-)NPA), electronic activity monitor. It counts as in vivo, rat. Particulars: Table 4; (-)APO 3.0 mg/kg + saline.
Setting [8] is: test agent 3 mg/kg ip just prior to (-)APO ip.
[9] abbreviates: test agent 3 mg/kg ip just prior to (-)APO ip, * p < 0.005.
Setting [10] is: intrastriatal DA 16 μg, 3 mg/kg ip.
[11] abbreviates: intrastriatal DA 16 μg, 3 mg/kg po.
[12] abbreviates: SKF-525A 40 mg/kg ip pretreatment, then S(+)MDO-NPA 3 mg/kg ip.
[13] abbreviates: intrastriatal dopamine 16 μg + systemic saline.
Setting [14] is: SKF-525A 40 mg/kg ip, then saline.

Where a name gives a salt, the structure may show the parent alone. Read-outs that look alike come from different tables or passages of the source.

As to `CCCN1CCc2cccc3c2[C@@H]1Cc1cccc(O)c1-3` [(+)11-OH--N--propylnoraporphine, S(+) 11-hydroxy-N-propylnoraporphine hydrochloride and hydrobromide], in assay [1] (listed as S(+)11-hydroxy-N-propylnoraporphine, hydrobromide, 3 mg/kg), the “interaction with (-)APO locomotor arousal (in words)” value (shortened to “interaction”) was “strong inhibitory interaction with APO”. Also, in assay [1] (listed as S(+)11hydroxy-N--propylnoraporphine, hydrobromide, 3 mg/kg), the “interaction” value is “significant inhibition of arousal”. Besides, the “EAM Score” value in assay [1] (setting [8]) worked out at 218 ± 33. In assay [1] (setting [9]), the “EAM Score, Percent of Control” value was 43% of Control. The “effect on locomotor-arousal activity (in words)” value in assay [1] is reported as “exerted similarly selective actions as (+)NPA”. Also, in assay [2], the “SB Score, Percent of Maximum” value was 6.9% of Maximum and the “stereotyped behavior (in words)” value was “virtually inactive”. Further, in assay [2] (one hour), the “SB Score (stereotyped behaviors)” value was 1.3 ± 0.75.

Regarding `CCCN1CCc2cccc3c2[C@@H]1Cc1cccc(OC)c1-3` [(+)11-methoxy-N--propylnoraporphine, S(+) 11-Methoxy-N-propylnoraporphine hydrobromide], the “interaction” value in assay [1] is recorded as “devoid of activity”. In addition, the “EAM Score” value in assay [1] (setting [8]) is 528 ± 25. For the same molecule, the “EAM Score, Percent of Control” value in assay [1] (setting [9]) is recorded as 105% of Control. In assay [2], the “SB Score, Percent of Maximum” value is given as 0.0% of Maximum and the “stereotyped behavior (in words)” value was “inactive”. Moreover, the “SB Score (stereotyped behaviors)” value in assay [2] (one hour) is 0 ± 0.

For the molecule `CCCN1CCc2cccc3c2[C@@H]1Cc1ccc2c(c1-3)OCO2` [(+)MDO-NPA, S(+) 10,11-methylenedioxy-N-propylnoraporphine hydrochloride], the “Contralateral Head Deviation, Percent of Total” value in assay [3] (setting [10]) is given as 71.7% of Total; in assay [3] (setting [11]) it was 70.1% of Total. In addition, the “Contralateral Head Deviation, Time” value in assay [3] (setting [10]) was found to be 512 ± 96 s; in assay [3] (setting [11]), 505 ± 89 s. For the same molecule, the “activity counts (arousal induced by 16 μg DA in accumbens)” value in assay [4] (0.3 mg/kg ip) is recorded as 122 ± 16 activity counts; in assay [4] (0.3 mg/kg po), 149 ± 23 activity counts; in assay [4] (1.0 mg/kg ip), 54 ± 9 activity counts; in assay [4] (1.0 mg/kg po), 74 ± 17 activity counts; in assay [4] (3.0 mg/kg ip), 36 ± 7 activity counts; in assay [4] (3.0 mg/kg po), 49 ± 16 activity counts. For the same molecule, the ED50 in assay [4] (ip, read-out: ID50, ip) stood at 0.27 mg/kg; in assay [4] (po, read-out: ID50, po), 0.51 mg/kg. Moreover, the ID50 in assay [4] (ip) worked out at 0.3 mg/kg; in assay [4] (po) it was 0.5 mg/kg. The “effect on arousal induced by DA in accumbens (in words)” value in assay [4] (rat, in vivo) is given as “also active after systemic oral administration, selectively, against DA placed in the accumbens but not the striatum”. In addition, the “times more potent than (+)APO as inhibitor of DA in the limbic system” value in assay [4] (vs (+)APO) was 13 times. Moreover, the “Locomotor Activity” value in assay [5] (setting [12]) is 3445 ± 597 counts/hr; in assay [5] (saline pretreatment, then S(+)MDO-NPA 3 mg/kg ip) it was 1828 ± 265 counts/hr. Further, the “Locomotor Activity (%)” value came to 82% in assay [5] (setting [12]) and 43% in assay [5] (saline pretreatment, then S(+)MDO-NPA 3 mg/kg ip, * p < 0.05).

In the case of `CCCN1CCc2cccc3c2[C@H]1Cc1cccc(O)c1-3` [(-)11-OH--N--propylnoraporphine, R(-)11-hydroxy-N-propylnoraporphine], the “increase of the locomotor stimulatory effect of APO” value in assay [1] (3 mg/kg) is reported as 51%. In assay [1] (setting [8]), the “EAM Score” value was found to be 764 ± 58. Further, the “EAM Score, Percent of Control” value in assay [1] (setting [9]) was 151% of Control. For the same molecule, in assay [2], the “SB Score, Percent of Maximum” value was 76.7% of Maximum. For the same molecule, the “SB Score (stereotyped behaviors)” value in assay [2] (one hour) is given as 13.8 ± 0.75. Also, the “stereotyped behavior (in words)” value in assay [2] (listed as R(-)11-hydroxy-N-- propylnoraporphine) is “very active”; in assay [2] (listed as R(-)11-hydroxy-N-propylnoraporphine), “striking activity as a DA agonist”.

In the case of `CCCN1CCc2cccc3c2[C@H]1Cc1cccc(OC)c1-3` [(-)11-methoxy-N--propylnoraporphine], in assay [1] (3 mg/kg), the “increase of the locomotor stimulatory effect of APO” value amounted to 14%. Also, in assay [1] (setting [8]), the “EAM Score” value was 574 ± 45. For the same molecule, the “EAM Score, Percent of Control” value in assay [1] (setting [9]) was 114% of Control. In assay [2], the “SB Score, Percent of Maximum” value is 36.1% of Maximum. In addition, in assay [2] (one hour), the “SB Score (stereotyped behaviors)” value is on record as 6.5 ± 0.50. The “stereotyped behavior (in words)” value in assay [2] (listed as 11-methoxy congener) is given as “moderately active”; in assay [2] (listed as R(-)11methoxy analog), “had some activity”.

Turning to `CN1CCc2cccc3c2[C@H]1Cc1ccc(O)c(O)c1-3` [(-)APO, R(-)apomorphine], the “Total Activity” value was 42.2 ± 8.5 percent change in assay [6] ((-)APO 0.3 mg/kg + saline), 51.9 ± 6.8 percent change in assay [6] ((-)APO 1.0 mg/kg + saline) and 75.3 ± 8.6 percent change in assay [6] ((-)APO 3.0 mg/kg + saline). The Locomotion is recorded as 63.5 ± 12.3 percent change in assay [1] ((-)APO 0.3 mg/kg + saline), 75.8 ± 19.4 percent change in assay [1] ((-)APO 1.0 mg/kg + saline) and 48.6 ± 9.3 percent change in assay [7]. The “EAM Score, Percent of Control” value in assay [1] ((-)APO alone (control)) is on record as 100% of Control. Also, in assay [1] ((-)APO alone (control), ip), the “EAM Score” value is reported as 505 ± 55. Besides, the “mean control stereotypy score, % of maximum” value in assay [2] ((-)APO 0.3 mg/kg IP + vehicle) is given as 51.3 % of maximum. Further, in assay [2] ((-)APO 0.3 mg/kg IP + vehicle, one hour, maximum possible score 18.0), the “mean control stereotypy score” value worked out at 9.23 ± 0.43. For the same molecule, the “approximate ED50 (stereotyped behavior)” value in assay [2] ((-)APO, IP, rats) is given as around 0.3 mg/kg. The “Stereotypy Score” value was 3.0 ± 0.0 rating units in assay [2] (Table 1, (-) isomer 3 mg/kg, s.c., ± saline, maximum 3.0); 1.62 ± 0.23 rating units in assay [2] (Table 4, (-)APO 0.3 mg/kg + saline); 2.09 ± 0.36 rating units in assay [2] (Table 4, (-)APO 1.0 mg/kg + saline); 2.92 ± 0.20 rating units in assay [2] (Table 4, (-)APO 3.0 mg/kg + saline).

Take `NCCc1ccc(O)c(O)c1` [DA, dopamine]: in assay [3] (setting [13]), the “Contralateral Head Deviation, Percent of Total” value was 59.0% of Total and the “Contralateral Head Deviation, Time” value is 425 ± 53 s.

Consider `CN1CCc2cccc3c2[C@@H]1Cc1cccc(O)c1-3` [S(+) 11-hydroxyaporphine, S(+) 11-hydroxyaporphine (N-R=N-methyl)], for which, in assay [1], the “effect on locomotor-arousal activity (in words)” value is “less active”.

As for `CCCC(C(=O)OCCN(CC)CC)(c1ccccc1)c1ccccc1` [SKF-525A], in assay [5] (setting [14]), the “Locomotor Activity” value is reported as 4777 ± 610 counts/hr and the “Locomotor Activity (%)” value was found to be 113%.
